Assays:
TGFBR2 = target: T1, TGFBR2 (Homo sapiens, UniProt P37173); experiment: TGFBR2 RBC assay (enzyme inhibition assay, Reaction Biology Corp.); assay type: biochemical
T1 construct: purchased Reaction Biology Corp
Experimental: Compounds of the disclosure were also assayed by Reaction Biology Corp. using the TGFBR2 RBC assay (enzyme inhibition assay). […] NT refers to not tested.

[1] = test system: TGFβ/SMAD Signaling Pathway SBE reporter cell line; experiment: TGFβ reporter assay, in vitro small molecule screening (luciferase); assay type: cell-based; settings: TGFβ stimulation, luminescence
Summary of the method: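 SBE luciferase reporter cells (~0.5×10^6 cells/mL) preincubated with compound 5-6 h at 37 °C in 0.5% FBS MEM, then stimulated with TGFβ (12 ng/mL stock) for 18 h. Luminescence read after luciferase substrate; EC50 from curve fits.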

T1 sequence (P37173 23-567): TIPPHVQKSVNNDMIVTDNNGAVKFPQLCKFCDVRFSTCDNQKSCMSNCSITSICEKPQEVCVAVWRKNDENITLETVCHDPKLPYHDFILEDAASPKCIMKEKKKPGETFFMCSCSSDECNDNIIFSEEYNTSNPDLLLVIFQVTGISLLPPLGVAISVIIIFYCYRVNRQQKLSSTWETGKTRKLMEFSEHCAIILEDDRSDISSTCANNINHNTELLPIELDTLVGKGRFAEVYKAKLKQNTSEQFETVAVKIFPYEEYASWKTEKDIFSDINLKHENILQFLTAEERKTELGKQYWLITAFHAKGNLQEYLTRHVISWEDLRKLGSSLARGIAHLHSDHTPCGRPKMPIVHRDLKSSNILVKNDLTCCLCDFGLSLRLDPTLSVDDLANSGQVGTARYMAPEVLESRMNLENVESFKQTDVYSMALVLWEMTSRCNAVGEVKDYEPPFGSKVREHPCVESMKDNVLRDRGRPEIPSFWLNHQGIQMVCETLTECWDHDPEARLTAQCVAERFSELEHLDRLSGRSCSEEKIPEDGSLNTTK

Structure (SMILES) | IC50 (TGFBR2) [nM] | EC50 [1] [nM]
Nc1ncc(-c2ccc(Cl)cc2)nc1C(=O)Nc1cnccc1N1CCOCC1 [Compound 160] | < 50 | 100 to 1000
CC(C)[C@H](NC(=O)OC(C)(C)C)C(=O)N1CCC[C@H]1C(=O)NCc1ccc(-c2cnc(N)c(C(=O)Nc3cnccc3N3CCOCC3)n2)cc1 [Compound 111] | < 50 | 100 to 1000
COC1CN(c2ccncc2NC(=O)c2nc(-c3ccc(CCNC(=O)OCc4ccccc4)cc3)cnc2N)C1 [Compound 96] | > 1000 | > 1000
Nc1ncc(-c2ccc(N3CC[C@H](N)C3)cc2)nc1C(=O)Nc1cnccc1N1CCOCC1 [Compound 277] | < 50 | 50 to 100
Nc1ncc(-c2ccc(CCNC(=O)OCc3ccccc3)cc2)nc1C(=O)Nc1cnccc1-c1cccnc1 [Compound 128] | < 50 | 100 to 1000
Nc1ncc(-c2ccc3c(c2)CCC(O)C3)nc1C(=O)Nc1cnccc1N1CCOCC1 (stereo not drawn) [Compound 249] | < 50 | 100 to 1000
CCOC(=O)[C@@H]1CNC[C@H]1c1ccc(-c2cnc(N)c(C(=O)Nc3cnccc3N3CCOCC3)n2)cc1 [Compound 227] | < 50 | 50 to 100
Nc1ncc(-c2ccc(CCNC(=O)OCc3ccccc3)cc2)nc1C(=O)Nc1cnccc1-c1ccncc1F [Compound 23] | < 50 | 100 to 1000
CC(C)(C)OC(=O)N1CCN(C(=O)c2ccc(-c3cnc(N)c(C(=O)Nc4cnccc4N4CCOCC4)n3)cc2)CC1 [Compound 81] | 100 to 1000 | 50 to 100
COC(=O)c1cc(-c2cnc(N)c(C(=O)Nc3cnccc3N3CCOCC3)n2)ccc1OCCCNC(=O)OC(C)(C)C [Compound 241] | 100 to 1000 | > 1000
Nc1ncc(-c2ccc(CCNC(=O)OCc3ccccc3)cc2)nc1C(=O)Nc1cnccc1-n1cncn1 [Compound 188] | < 50 | > 1000
CC(CN)Oc1cccc(-c2cnc(N)c(C(=O)Nc3cnccc3N3CCOCC3)n2)c1 (stereo not drawn) [Compound 190] | 50 to 100 | 100 to 1000
Nc1ncc(-c2ccc(Cl)c(Cl)c2)nc1C(=O)Nc1cnccc1N1CCOCC1 [Compound 154] | 100 to 1000 | > 1000
C[C@H](N)C(=O)NCc1ccc(-c2cnc(N)c(C(=O)Nc3cnccc3N3CCOCC3)n2)cc1 [Compound 106] | 50 to 100 | 100 to 1000
Nc1ncc(-c2ccc(OC3CCN(C(=O)OCc4ccccc4)CC3)cc2)nc1C(=O)Nc1cnccc1N1CCOCC1 [Compound 166] | 100 to 1000 | 100 to 1000
COC1CCN(c2ccncc2NC(=O)c2nc(-c3ccc(CCNC(=O)OCc4ccccc4)cc3)cnc2N)CC1 [Compound 42] | 50 to 100 | 100 to 1000
Nc1ncc(-c2ccc(CCC(=O)N3CCNCC3)cc2)nc1C(=O)Nc1cnccc1N1CCOCC1 [Compound 88] | < 50 | 50 to 100
Nc1ncc(-c2ccc3ccccc3c2)nc1C(=O)Nc1cnccc1N1CCOCC1 [Compound 252] | < 50 | 100 to 1000
COc1ccc(-c2cnc(N)c(C(=O)Nc3cnccc3N3CCOCC3)n2)cc1 [Compound 156] | < 50 | 100 to 1000
CCc1nccn1-c1ccncc1NC(=O)c1nc(-c2ccc(CCNC(=O)OCc3ccccc3)cc2)cnc1N [Compound 141] | < 50 | > 1000
CC(C)c1nccn1-c1ccncc1NC(=O)c1nc(-c2ccc(CCN)cc2)cnc1N [Compound 142] | < 50 | 100 to 1000
Nc1ncc(-c2ccc(CCNC(=O)OCc3ccccc3)cc2)nc1C(=O)Nc1cnc(F)cc1N1CCOCC1 [Compound 236] | < 50 | > 1000
Nc1ncc(-c2ccc(S(=O)(=O)N3CCN(C(=O)OCc4ccccc4)CC3)cc2)nc1C(=O)Nc1cnccc1N1CCOCC1 [Compound 63] | 100 to 1000 | 50 to 100
CC(C)(C)OC(=O)N1CCN(c2ccc(-c3cnc(N)c(C(=O)Nc4cnccc4N4CCOCC4)n3)cc2)CC1 [Compound 71] | < 50 | 100 to 1000
Nc1ncc(-c2ccc(CCNC(=O)OCc3ccccc3)cc2)nc1C(=O)Nc1cnccc1N1CCCOC1=O [Compound 38] | 100 to 1000 | 100 to 1000
CC(CN)Oc1ccc(-c2cnc(N)c(C(=O)Nc3cnccc3N3CCCOCCC3)n2)cc1 (stereo not drawn) [Compound 261] | > 1000 | > 1000

Structure (SMILES) | IC50 (TGFBR2) [nM] | EC50 [1] [nM]
CC(C)(C)OC(=O)N[C@@H]1CCN(c2ccc(-c3cnc(N)c(C(=O)Nc4cnccc4N4CCOCC4)n3)cc2)C1 [Compound 274] | < 50 | 100 to 1000
Nc1ncc(-c2ccc(N3CC[C@@H](N)C3)cc2)nc1C(=O)Nc1cnccc1N1CCOCC1 [Compound 278] | < 50 | 50 to 100
NCCNC(=O)c1ccc(-c2cnc(N)c(C(=O)Nc3cnccc3N3CCOCC3)n2)cc1 [Compound 75] | < 50 | 100 to 1000
Nc1ncc(-c2ccc(OCC[C@@H](NC(=O)OCc3ccccc3)C(=O)O)cc2)nc1C(=O)Nc1cnccc1N1CCOCC1 [Compound 276] | < 50 | > 1000
Nc1ncc(-c2ccc(CCNC(=O)OCc3ccccc3)cc2)nc1C(=O)Nc1cnccc1N1CCOCC1=O [Compound 35] | 100 to 1000 | 100 to 1000
Nc1ncc(-c2ccc(CCNC(=O)OCc3ccccc3)cc2)nc1C(=O)Nc1cnccc1-c1ccncc1 [Compound 5.1, Benzyl (4-(6-([4,4′-bipyridin]-3-ylcarbamoyl)-5-aminopyrazin-2-yl)phenethyl)carbamate] | < 50 | 100 to 1000
NCCc1ccc(-c2cnc(N)c(C(=O)Nc3cnccc3N3CCOCC3)n2)nc1 [Compound 117] | 100 to 1000 | > 1000
NCC1CN(c2ccncc2NC(=O)c2nc(-c3ccc(CCNC(=O)OCc4ccccc4)cc3)cnc2N)CCO1 (stereo not drawn) [Compound 41] | 100 to 1000 | 100 to 1000
Nc1ncc(-c2ccc3c(c2)CCCN3)nc1C(=O)Nc1cnccc1N1CCOCC1 [Compound 193] | < 50 | 50 to 100
Nc1ncc(-c2ccc(O[C@H]3C[C@H](N)C3)cc2)nc1C(=O)Nc1cnccc1N1CCOCC1 [Compound 222] | < 50 | 100 to 1000
CC(C)(C)OC(=O)NCCNc1ccc(-c2cnc(N)c(C(=O)Nc3cnccc3N3CCOCC3)n2)cc1 [Compound 266] | < 50 | 100 to 1000
Nc1ncc(-c2ccc3c(c2)CCC(=O)N3)nc1C(=O)Nc1cnccc1N1CCOCC1 [Compound 198] | 50 to 100 | 100 to 1000
Nc1ncc(-c2ccc(CCNC(=O)OCc3ccccc3)cc2)nc1C(=O)Nc1cnccc1-n1ccnc1 [Compound 137] | < 50 | > 1000
Nc1ncc(-c2ccc(CCNC(=O)OCc3ccccc3)cc2)nc1C(=O)Nc1cnccc1-c1ccccc1 [Compound 121] | < 50 | 100 to 1000
NCCc1ccc(-c2cnc(N)c(C(=O)Nc3c(N4CCOCC4)ccnc3N)n2)cc1 [Compound 131] | > 1000 | > 1000
COc1ccccc1-c1cnc(N)c(C(=O)Nc2cnccc2N2CCOCC2)n1 [Compound 150] | 100 to 1000 | > 1000
CC(C)(C)OC(=O)N1CCc2cc(-c3cnc(N)c(C(=O)Nc4cnccc4N4CCOCC4)n3)ccc2C1CN (stereo not drawn) [Compound 230] | < 50 | 50 to 100
Nc1ncc(-c2ccc3c(c2)CC(O)CC3)nc1C(=O)Nc1cnccc1N1CCOCC1 (stereo not drawn) [Compound 246] | < 50 | 100 to 1000
Nc1ncc(-c2ccc3c(c2)CCC3N)nc1C(=O)Nc1cnccc1N1CCOCC1 (stereo not drawn) [Compound 220] | < 50 | 100 to 1000
NCCc1ccc(-c2cnc(N)c(C(=O)Nc3cnccc3-n3ccnc3)n2)cc1 [Compound 136] | < 50 | > 1000
Nc1ncc(-c2ccc(CN3CCNCC3=O)cc2)nc1C(=O)Nc1cnccc1N1CCOCC1 [Compound 87] | < 50 | 50 to 100
COCCN(C)c1ccncc1NC(=O)c1nc(-c2ccc(CCN)cc2)cnc1N [Compound 102] | 100 to 1000 | 100 to 1000
CC(C)(C)OC(=O)NCC1CCc2cc(-c3cnc(N)c(C(=O)Nc4cnccc4N4CCOCC4)n3)ccc2N1 (stereo not drawn) [Compound 243] | 100 to 1000 | 100 to 1000
Nc1ncc(-c2ccc(CCNC(=O)OCc3ccccc3)cc2)nc1C(=O)Nc1cnccc1-c1ccccn1 [Compound 133] | < 50 | > 1000
CN(CCN)c1ccc(-c2cnc(N)c(C(=O)Nc3cnccc3N3CCOCC3)n2)cc1 [Compound 272] | < 50 | 50 to 100

Source: US20220362396A1, “AMINO-PYRAZINECARBOXAMIDE COMPOUNDS, CONJUGATES, AND USES THEREOF” (Silverback Therapeutics, Inc., priority 2018, published 2022)
